Key:
[1] = tested on: A20 mouse BALB/c lymphoma cell line in BALB/c recipient mice; experiment: graft-versus tumor (GVT): acute GVHD model challenged with A20 tumor cells; type: in vivo
Text: FIGS. 2A-2C. Compound No. 36 treatment of acute GVHD model challenged with A20 tumor cells. Using the same method as described in FIGS. 1A-1C, BALB/c recipient mice underwent major histocompatibility complex (MHC) major mismatch allogeneic bone marrow transplantation (BMT) with C57BL/6 donor or with BALB/c donor as syngeneic control. BALB/c recipient mice on day 0 received 5×10^6 of bone marrow cells and 1×10^6 of purified splenic T cells with or without 0.5×10^6 A20 cells inoculum. As indicated here, recipients received intraperitoneal injections of 25 mg/kg of Compound No. 36 or vector starting on day −1, then three time weekly, from day −1 to day 21. Mice were monitored weekly for survival and GVHD score. FIG. 2A indicates body weight changes of animals measured weekly.
Data in *, P<0.05; **, P<0.01. Syn—syngenic; Allo—allogeneic.
As GVHD is tightly linked to the graft-versus tumor (GVT) response, testing was undertaken to determine whether Compound No. 36 treatment reduces the effect of GVT in the same mouse model as for GVHD (Example 1). To that end, a mouse BALB/c lymphoma cell line, A20 (0.5×10^6), thus syngeneic to the recipients, was incorporated to the bone marrow transplantation (BMT) cell inoculum on day 0. Recipients received the same doses of Compound No. 36 or vector from day −1 to day 21 as the above model. Syngeneic recipients of BALB/c to BALB/c were also setup with or without A20 cell inoculum and injected the same doses of Compound No. 36 or vector. Syngeneic recipients challenged with A20 cells got systemic tumor infiltration (lower-limb paralysis, hepatosplenomegaly) and 100% of recipients died within 3 weeks after BMT without Compound No. 36 treatment (FIG. 2A and FIG. 2B).

[2] = tested on: acute GVHD in BALB/c recipient mice; experiment: acute GVHD model, C57BL/6 (H-2Kb) into BALB/c (H-2Kd) MHC mismatch bone marrow transplantation; type: in vivo, mouse; details: for survival: allogeneic recipients, 25 mg/kg i.p., p<0.001
Description: FIGS. 1A-1C. Compound No. 36 treatment of acute GVHD model. BALB/c recipient mice on day 0 received 5×10^6 of bone marrow cells and 1×10^6 of purified splenic T cells from allogeneic C57BL/6 donor or syngeneic BALB/c donor following lethal irradiation with 800 rads on day −1. Recipients received intraperitoneal injections of 25 mg/kg of Compound No. 36 or vector starting on day −1, then three times weekly, from day −1 to day 21. Mice were monitored […]. […] Data in *, P<0.05; **, P<0.01. Syn—syngenic; Allo—allogeneic.
To determine whether Compound No. 36 affects established parameters of acute GVHD, a well-established C57BL/6 (H-2Kb) into a BALB/c (H-2Kd) major histocompatibility complex (MHC) mismatch model was used. On day 0, BALB/c recipient mice received 5×10^6 of bone marrow cells and 1×10^6 of purified splenic T cells from allogeneic C57BL/6 donor or syngeneic BALB/c donor following lethal irradiation with 800 centiGray (units of radiation) on day −1. Recipients received intraperitoneal injections of 25 mg/kg every other day of Compound No. 36 or vector from day −1 to day 21. Mice were monitored daily for survival and weekly for GVHD score.

[3] = tested on: small intestinal organoids; experiment: small intestinal organoids culture in vitro (GFP-Lgr5 transgenic mouse crypts); type: cell-based
Description: FIGS. 3A-3D display the effect of Compound No. 36 on intestinal organoids culture in vitro. Intestinal organoids were established from culture of small intestinal crypts in GFP-Lgr5 transgene B6 mice. 3-5 passages of organoids were used to test the effect of Compound No. 36 in vitro. After dissociation of organoids, 100 crypts per well mixed with Matrigel-culture medium were plated in 24-well plate. After the Matrigel polymerized, 500 μL of culture medium with different concentrations of Compound No. 36 or vector were added to each well. The growth of the organoids was checked daily. Three days after coculture, organoid numbers and budding numbers were counted under the microscope and were photographed (FIG. 3A). Then, organoids were mechanically disrupted and dissociated into single cells with TrypLE Express. Cells were stained with anti-CD326, annexin V, and 7-AAD to analyze GFP-Lgr5^hi cells apoptosis by flow cytometry (FIGS. 3B-3D).
To further determine whether Compound No. 36 has any direct GVHD organ (e.g., GI tract) toxicity or conversely, a regenerative effects, in the context of BMT, various concentrations of Compound No. 36 was cocultured with established small intestinal organoids, in which the intestine crypts were from the GFP-Leucine-rich repeat-containing G protein-coupled receptor 5 (Lgr5) transgenic mouse strain. Intestinal organoids were established from culture of small intestinal crypts in GFP-Lgr5 transgene B6 mice. 3-5 passages of organoids were used to test the effect of Compound No. 36 in vitro. After dissociation of organoids, 100 crypts per well mixed with Matrigel-culture medium were plated in 24-well plate. After the Matrigel polymerized, 500 μL of culture medium with different concentrations of Compound No. 36 or vector were added to each well. Orgonoid growth was assessed daily. Three days after coculture, organoid numbers and budding numbers were counted under the microscope and were photographed (FIG. 3A). […] Organoids were then mechanically disrupted and dissociated into single cells with TrypLE Express. […]

NC(=O)CC[C@H](NC(=O)[C@@H]1CC[C@@H]2CCN(C(=O)CCCCCC#Cc3cccc4c3CN(C3CCC(=O)NC3=O)C4=O)C[C@H](NC(=O)c3cc4cc(C(F)(F)P(=O)(O)O)ccc4[nH]3)C(=O)N21)C(=O)NC(c1ccccc1)c1ccccc1 (stereo partly drawn) [Compound No. 36, ((2-(((5S,8S,10aR)-8-(((S)-5-amino-1-(benzhydrylamino)-1,5-dioxopentan-2-yl)carbamoyl)-3-(8-(2-(2,6-dioxopiperidin-3-yl)-1-oxoisoindolin-4-yl)oct-7-ynoyl)-6-oxodecahydropyrrolo[1,2-a][1,5]diazocin-5-yl)carbamoyl)-1H-indol-5-yl)difluoromethyl)phosphonic acid]
tumor-related death ([1]; allogeneic GVHD model challenged with A20 cells, by 6 weeks after BMT): no tumor-related death was observed
mice survival ([1]; allogeneic GVHD model challenged with A20 cells, by 6 weeks after BMT, vector 50%, p<0.05): 100%
GVHD severity ([1]; allogeneic GVHD model challenged with A20 cells, by 6 weeks after BMT, vs. vector): significantly reduced GVHD severity
survival time ([1]; syngeneic recipients receiving A20 cells (0.5x10^6), 25 mg/kg i.p. day -1 to day 21, vs. no treatment (100% died within 3 weeks)): significantly extended the survival time
acute GVHD severity (body weight loss and clinical GVHD scores) ([2]; allogeneic C57BL/6 to BALB/c, 25 mg/kg intraperitoneal every other day, day -1 to day 21, vs. vector): significantly reduce acute GVHD severity by reducing body weight loss and clinical GVHD scores
survival ([2]; day 50, vector 50%): 100%
survival ([2]; day 100, vector 12%): 53%
signs of toxicity or GVHD ([2]; syngeneic recipients BALB/c to BALB/c, same doses (25 mg/kg i.p.)): did not present any signs of toxicity
survival rate ([2]; syngeneic recipients BALB/c to BALB/c, same doses, until the end point): 100%
toxicity on intestine ([3]; conclusion from the organoid data): does not have significant toxicity on intestine
organoid numbers and budding numbers ([3]; three days after coculture, series concentrations): No significant changes were observed
Lgr5-GFP+ stem cells and Annexin V expression (apoptosis) by flow cytometry ([3]; three days after coculture, vs. vector group): no differences between vector group and Compound No. 36 treatment group were observed

From US20230133504A1, “METHOD OF TREATING GRAFT-VERSUS-HOST DISEASE” (REGENTS OF THE UNIVERSITY OF MICHIGAN, priority 2021, published 2023)
